{"source": "patent US8883718B2", "about": "“Treating cancer” (Theryte Limited, priority 2008, dated 2014)", "format_in_all_cases": "cell-based", "key": {"[1]": {"tested_on": "H460 human non-small cell lung cancer cells", "assay": "clonogenic assay on H460 cells", "method": "The first experiments were carried out on cyc-[[…]] (THR 53, (SEQ ID NO: 9)), see FIG. 4. Whilst the 96 well assays described in Example 3 are suitable for initial screening of small amounts of peptide material the long incubation periods in dense culture do themselves compromise cell viability to some extent. […] In clonogenic assays, (previously described by Warenius et al Br J Cancer (2000) 83(8), 1048-1059) single cell suspensions of 100 cells are plated in plentiful volumes of 2 ml of Ham's F12 tissue culture medium supplemented with 10% FCS and incubated for 15, 20 or 25 days. A high percentage of the plated cells (40-60% in the case of H460) go through repeated doublings to yield colonies of 200 or more cells which can be easily visualized by the naked eye and counted under a low power lens when stained by giemsa stain.\nThe efficacy of THR53 was compared to Ac-PRGPRP-NH2 (SEQ ID NO: 2) using a clonogenic assay."}, "[2]": {"tested_on": "MRC-hTERT immortalized normal human fibroblasts", "assay": "MRC-hTERT fibroblasts exposed to THR53", "details": "200 μM", "method": "FIGS. 7(c), (d) and (e) show time lapse photomicrographs of H460 human non-small cell lung cancer cells and MRC-hTERT immortalized normal human fibroblasts growing in tissue culture following exposure to 200 μM THR53 (SEQ ID NO: 9) (d, e) and untreated control H460 cells (c). Magnification ×10.\n(§1) In a clinical context this might provide a biomarker of therapeutic efficacy. […] Such a homogeneous therapeutic response is in marked contrast to the wide range of variability in dose response of different cancer cell lines seen with conventional chemotherapeutic agents^24. Cancer cells both underwent successful mitosis and died (FIG. 3f) or died in interphase (FIG. 7d). […] MRC-hTERT fibroblasts (FIG. 7c) and short term cultures of normal diploid human keratinocytes (FIG. 3h) were not killed by 200 μM THR53."}, "[3]": {"tested_on": "Eleven human cancer cell lines covering a wide range of histologies", "assay": "eleven human cancer cell lines exposed to THR53 (morphology and clonogenic assays)", "details": "200 μM", "method": "as §1"}, "[4]": {"tested_on": "normal diploid human keratinocytes", "assay": "normal keratinocyte cultures exposed to THR53", "details": "200 μM", "method": "FIGS. 7(g), (h), (i,) and (j) show established cultures of H460 human non-small cell lung cancer cells (i, j) and normal diploid human keratinocytes (g, h) in the presence and absence of THR53. 10^4 tumor or keratinocyte cells were plated in 2.5 cm diameter tissue culture wells and 5 days later vehicle (g, i) or 200 μM THR53 (SEQ ID NO: 9) (h, j) were added. Further incubation was carried out for 7 days.\nas §1"}}, "note": "“Also recorded” adds a separate entry of the source. Where a SMILES comes first, the peptide text is derived from it.", "data": [{"smiles": "CC(C)C[C@@H]1NC(=O)[C@H](C)NC(=O)[C@H](CC(C)C)NC(=O)[C@H](CCCCN)NC(=O)[C@H](C(C)C)NC(=O)[C@@H]2CCCN2C(=O)[C@H](CCCNC(=N)N)NC(=O)[C@@H]2CCCN2C(=O)CNC(=O)[C@H](CCCNC(=N)N)NC(=O)[C@@H]2CCCN2C(=O)[C@@H]2CCCN2C(=O)[C@H](Cc2ccccc2)NC(=O)[C@H](CCCCN)NC(=O)[C@H](CC(C)C)NC(=O)[C@H](C)NC(=O)[C@H](CC(C)C)NC(=O)[C@H](CCCCN)NC1=O", "note": "[THR53] (cyclo(ALKFPPRGPRPVKLALKL))", "values": [{"measurement": "lethality on H460 non-small cell lung cancer cells", "setting": "[1]; 100 uM, no colonies visible", "result": 100, "unit": "%"}, {"measurement": "H460 cell survival in clonogenic assay", "setting": "[1]; drug concentrations 10 to 100 μM", "result": "significantly decreased"}, {"measurement": "killing of MRC-hTERT fibroblasts", "setting": "[2]", "result": "not killed"}, {"measurement": "mode of cancer cell death", "setting": "[3]", "result": "no features of apoptosis"}, {"measurement": "response / lethality in clonogenic assays", "setting": "[3]; 15 days after exposure, eleven human cancer cell lines", "result": "complete lethality; also recorded: complete response"}, {"measurement": "killing of normal diploid human keratinocytes in short term culture", "setting": "[4]", "result": "not killed"}]}]}
